Data: the supplement of paper PMC10307832

Columns and labels:
Experiment in all cases: relative viability (nuclei count vs DMSO), 5 days (fraction); higher = more cells survive
[1] = compound: C1=CC=C2C(=C1)N=C(S2)C(C#N)C3=NC(=NC=C3)NCCC4=CN=CC=C4 + CC(=O)Nc1cccc(-n2c(=O)n(C3CC3)c(=O)c3c(Nc4ccc(I)cc4F)n(C)c(=O)c(C)c32)c1 [Trametinib] (partner 0.02 µM)
Procedure, shortened: (§1)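 Lung cancer cell lines were seeded in 1536-well plates and dosed by pin tool the next day, with either a single drug or a fixed anchor-drug dose combined with five library-drug doses (not always all listed) spaced in √10 steps. Five days later, one step fixed the cells and stained their nuclei (final 0.05% Triton X-100, 1% formaldehyde, 1 ug/ml Hoechst), and nuclei were counted on 4× images. Relative viability is the nuclei count in treated wells divided by the count in vehicle wells, and each value is the median of duplicate plates.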

[2] = compound: C1=CC=C2C(=C1)N=C(S2)C(C#N)C3=NC(=NC=C3)NCCC4=CN=CC=C4 + COc1cc2c(Oc3ccc(NC(=O)C4(C(=O)Nc5ccc(F)cc5)CC4)cc3F)ccnc2cc1OCCCN1CCOCC1 [Foretinib] (partner 0.25 µM)
Procedure, shortened: as §1

Vandetanib + Trametinib = compound: COc1cc2/c(=N/c3ccc(Br)cc3F)nc[nH]c2cc1OCC1CCN(C)CC1 [Vandetanib] + CC(=O)Nc1cccc(-n2c(=O)n(C3CC3)c(=O)c3c(Nc4ccc(I)cc4F)n(C)c(=O)c(C)c32)c1 [Trametinib] (partner 0.02 µM)
Procedure, shortened: as §1

NVP-TAE684 + Vorinostat = compound: COc1cc(N2CCC(N3CCN(C)CC3)CC2)ccc1Nc1ncc(Cl)c(Nc2ccccc2S(=O)(=O)C(C)C)n1 [NVP-TAE684] + O=C(CCCCCCC(=O)Nc1ccccc1)NO [Vorinostat] (partner 1 µM)
Procedure, shortened: as §1

In the case of NCI-H2228, the relative viability ([1]; first compound 0.005 µM) is reported as 0.357, the relative viability ([1]; first compound 0.01581 µM) is reported as 0.447 and the relative viability ([1]; first compound 0.05 µM) is reported as 0.512. It also gave a relative viability ([1]; first compound 0.1581 µM) of 0.526, a relative viability ([1]; first compound 0.5 µM) of 0.46 and a relative viability ([2]; first compound 0.005 µM) of 0.971. It also gave a relative viability ([2]; first compound 0.01581 µM) of 0.84, a relative viability ([2]; first compound 0.05 µM) of 0.993 and a relative viability ([2]; first compound 0.1581 µM) of 1.04. The relative viability ([2]; first compound 0.5 µM) was 0.76, the relative viability (Vandetanib + Trametinib; first compound 0.02 µM) was 0.511 and the relative viability (Vandetanib + Trametinib; first compound 0.06325 µM) was 0.386. The relative viability (Vandetanib + Trametinib; first compound 0.2 µM) was 0.561, the relative viability (Vandetanib + Trametinib; first compound 0.6325 µM) was 0.64 and the relative viability (Vandetanib + Trametinib; first compound 2 µM) was 0.28. The relative viability (NVP-TAE684 + Vorinostat; first compound 0.2 µM) was 0.467, the relative viability (NVP-TAE684 + Vorinostat; first compound 0.6325 µM) was 0.325 and the relative viability (NVP-TAE684 + Vorinostat; first compound 2 µM) was 0.142.

PC-14 showed a relative viability ([1]; first compound 0.005 µM) of 0.411, a relative viability ([1]; first compound 0.01581 µM) of 0.933 and a relative viability ([1]; first compound 0.05 µM) of 0.633. The relative viability ([1]; first compound 0.1581 µM) was 0.948, the relative viability ([1]; first compound 0.5 µM) was 0.809 and the relative viability ([2]; first compound 0.005 µM) was 0.899. For the same cell line, the relative viability ([2]; first compound 0.01581 µM) was 1.05, the relative viability ([2]; first compound 0.05 µM) was 0.917 and the relative viability ([2]; first compound 0.1581 µM) was 1.08. The relative viability ([2]; first compound 0.5 µM) was 0.819, the relative viability (Vandetanib + Trametinib; first compound 0.02 µM) was 0.725 and the relative viability (Vandetanib + Trametinib; first compound 0.06325 µM) was 0.51. For the same cell line, the relative viability (Vandetanib + Trametinib; first compound 0.2 µM) was 0.071, the relative viability (Vandetanib + Trametinib; first compound 0.6325 µM) was 0.109 and the relative viability (Vandetanib + Trametinib; first compound 2 µM) was 0.0866. For the same cell line, the relative viability (NVP-TAE684 + Vorinostat; first compound 0.2 µM) was 0.44, the relative viability (NVP-TAE684 + Vorinostat; first compound 0.6325 µM) was 0.69 and the relative viability (NVP-TAE684 + Vorinostat; first compound 2 µM) was 0.144.

Work on H3255 yielded a relative viability ([1]; first compound 0.005 µM) of 0.533, a relative viability ([1]; first compound 0.01581 µM) of 0.577 and a relative viability ([1]; first compound 0.05 µM) of 0.62. It also gave a relative viability ([1]; first compound 0.1581 µM) of 0.697, a relative viability ([1]; first compound 0.5 µM) of 0.726 and a relative viability ([2]; first compound 0.005 µM) of 0.988. It also gave a relative viability ([2]; first compound 0.01581 µM) of 0.879, a relative viability ([2]; first compound 0.05 µM) of 0.848 and a relative viability ([2]; first compound 0.1581 µM) of 1.09. The relative viability ([2]; first compound 0.5 µM) was 0.963, the relative viability (Vandetanib + Trametinib; first compound 0.02 µM) was 0.614 and the relative viability (Vandetanib + Trametinib; first compound 0.06325 µM) was 0.577. The relative viability (Vandetanib + Trametinib; first compound 0.2 µM) was 0.604, the relative viability (Vandetanib + Trametinib; first compound 0.6325 µM) was 0.463 and the relative viability (Vandetanib + Trametinib; first compound 2 µM) was 0.245. The relative viability (NVP-TAE684 + Vorinostat; first compound 0.2 µM) was 0.855, the relative viability (NVP-TAE684 + Vorinostat; first compound 0.6325 µM) was 0.757 and the relative viability (NVP-TAE684 + Vorinostat; first compound 2 µM) was 0.667.

In the case of NCI-H441, the relative viability ([1]; first compound 0.005 µM) is reported as 0.444, the relative viability ([1]; first compound 0.01581 µM) is reported as 0.409 and the relative viability ([1]; first compound 0.05 µM) is reported as 0.432. For the same cell line, the relative viability ([1]; first compound 0.1581 µM) was 0.49, the relative viability ([1]; first compound 0.5 µM) was 0.307 and the relative viability ([2]; first compound 0.01581 µM) was 0.902. It also gave a relative viability ([2]; first compound 0.05 µM) of 0.913, a relative viability ([2]; first compound 0.1581 µM) of 1.1 and a relative viability ([2]; first compound 0.5 µM) of 0.908. It also gave a relative viability (Vandetanib + Trametinib; first compound 0.02 µM) of 0.527, a relative viability (Vandetanib + Trametinib; first compound 0.06325 µM) of 0.467 and a relative viability (Vandetanib + Trametinib; first compound 0.2 µM) of 0.43. For the same cell line, the relative viability (Vandetanib + Trametinib; first compound 0.6325 µM) was 0.405, the relative viability (Vandetanib + Trametinib; first compound 2 µM) was 0.351 and the relative viability (NVP-TAE684 + Vorinostat; first compound 0.2 µM) was 0.972. For the same cell line, the relative viability (NVP-TAE684 + Vorinostat; first compound 0.6325 µM) was 0.688 and the relative viability (NVP-TAE684 + Vorinostat; first compound 2 µM) was 0.56.

LK-2 showed a relative viability ([1]; first compound 0.005 µM) of 0.535, a relative viability ([1]; first compound 0.01581 µM) of 0.604 and a relative viability ([1]; first compound 0.05 µM) of 0.907. For the same cell line, the relative viability ([1]; first compound 0.1581 µM) was 0.74, the relative viability ([1]; first compound 0.5 µM) was 0.838 and the relative viability ([2]; first compound 0.005 µM) was 1.21. For the same cell line, the relative viability ([2]; first compound 0.01581 µM) was 1.21, the relative viability ([2]; first compound 0.05 µM) was 1.29 and the relative viability ([2]; first compound 0.1581 µM) was 1.06. For the same cell line, the relative viability ([2]; first compound 0.5 µM) was 1.64, the relative viability (Vandetanib + Trametinib; first compound 0.02 µM) was 0.753 and the relative viability (Vandetanib + Trametinib; first compound 0.06325 µM) was 0.829. For the same cell line, the relative viability (Vandetanib + Trametinib; first compound 0.2 µM) was 0.82, the relative viability (Vandetanib + Trametinib; first compound 0.6325 µM) was 0.62 and the relative viability (Vandetanib + Trametinib; first compound 2 µM) was 0.724. For the same cell line, the relative viability (NVP-TAE684 + Vorinostat; first compound 0.2 µM) was 0.271, the relative viability (NVP-TAE684 + Vorinostat; first compound 0.6325 µM) was 0.219 and the relative viability (NVP-TAE684 + Vorinostat; first compound 2 µM) was 0.215.

SW 1573 gave a relative viability ([1]; first compound 0.005 µM) of 0.615, a relative viability ([1]; first compound 0.01581 µM) of 0.587 and a relative viability ([1]; first compound 0.05 µM) of 0.479. The relative viability ([1]; first compound 0.1581 µM) was 0.718, the relative viability ([1]; first compound 0.5 µM) was 0.499 and the relative viability ([2]; first compound 0.005 µM) was 0.963. For the same cell line, the relative viability ([2]; first compound 0.01581 µM) was 0.792, the relative viability ([2]; first compound 0.05 µM) was 0.949 and the relative viability ([2]; first compound 0.1581 µM) was 0.994. For the same cell line, the relative viability ([2]; first compound 0.5 µM) was 0.892, the relative viability (Vandetanib + Trametinib; first compound 0.02 µM) was 0.59 and the relative viability (Vandetanib + Trametinib; first compound 0.06325 µM) was 0.568. It also gave a relative viability (Vandetanib + Trametinib; first compound 0.6325 µM) of 0.598, a relative viability (Vandetanib + Trametinib; first compound 2 µM) of 0.615 and a relative viability (NVP-TAE684 + Vorinostat; first compound 0.2 µM) of 0.745. The relative viability (NVP-TAE684 + Vorinostat; first compound 0.6325 µM) was 0.636 and the relative viability (NVP-TAE684 + Vorinostat; first compound 2 µM) was 0.346.

In the case of LU99A, the relative viability ([1]; first compound 0.005 µM) is reported as 0.463, the relative viability ([1]; first compound 0.01581 µM) is reported as 0.543 and the relative viability ([1]; first compound 0.1581 µM) is reported as 0.661. It also gave a relative viability ([1]; first compound 0.5 µM) of 0.555, a relative viability ([2]; first compound 0.005 µM) of 0.727 and a relative viability ([2]; first compound 0.01581 µM) of 0.853. For the same cell line, the relative viability ([2]; first compound 0.05 µM) was 0.701, the relative viability ([2]; first compound 0.1581 µM) was 0.843 and the relative viability ([2]; first compound 0.5 µM) was 0.789. For the same cell line, the relative viability (Vandetanib + Trametinib; first compound 0.02 µM) was 0.486, the relative viability (Vandetanib + Trametinib; first compound 0.06325 µM) was 0.518 and the relative viability (Vandetanib + Trametinib; first compound 0.2 µM) was 0.396. For the same cell line, the relative viability (Vandetanib + Trametinib; first compound 0.6325 µM) was 0.512, the relative viability (Vandetanib + Trametinib; first compound 2 µM) was 0.539 and the relative viability (NVP-TAE684 + Vorinostat; first compound 0.2 µM) was 0.51. For the same cell line, the relative viability (NVP-TAE684 + Vorinostat; first compound 0.6325 µM) was 0.465 and the relative viability (NVP-TAE684 + Vorinostat; first compound 2 µM) was 0.357.

In the case of NCI-H322M, the relative viability ([1]; first compound 0.005 µM) is reported as 0.483, the relative viability ([1]; first compound 0.01581 µM) is reported as 0.525 and the relative viability ([1]; first compound 0.05 µM) is reported as 0.489. It also gave a relative viability ([1]; first compound 0.1581 µM) of 0.569, a relative viability ([1]; first compound 0.5 µM) of 0.558 and a relative viability ([2]; first compound 0.005 µM) of 0.887. It also gave a relative viability ([2]; first compound 0.01581 µM) of 0.983, a relative viability ([2]; first compound 0.05 µM) of 0.838 and a relative viability ([2]; first compound 0.1581 µM) of 0.972. The relative viability ([2]; first compound 0.5 µM) was 0.982, the relative viability (Vandetanib + Trametinib; first compound 0.02 µM) was 0.513 and the relative viability (Vandetanib + Trametinib; first compound 0.06325 µM) was 0.476. For the same cell line, the relative viability (Vandetanib + Trametinib; first compound 0.2 µM) was 0.516, the relative viability (Vandetanib + Trametinib; first compound 0.6325 µM) was 0.55 and the relative viability (Vandetanib + Trametinib; first compound 2 µM) was 0.486. For the same cell line, the relative viability (NVP-TAE684 + Vorinostat; first compound 0.2 µM) was 0.858, the relative viability (NVP-TAE684 + Vorinostat; first compound 0.6325 µM) was 0.811 and the relative viability (NVP-TAE684 + Vorinostat; first compound 2 µM) was 0.565.

COR-L23 was tested, and the relative viability ([1]; first compound 0.005 µM) was 0.582, the relative viability ([1]; first compound 0.01581 µM) was 0.547 and the relative viability ([1]; first compound 0.05 µM) was 0.597. For the same cell line, the relative viability ([1]; first compound 0.1581 µM) was 0.717, the relative viability ([1]; first compound 0.5 µM) was 0.608 and the relative viability ([2]; first compound 0.005 µM) was 0.861. The relative viability ([2]; first compound 0.01581 µM) was 1.03, the relative viability ([2]; first compound 0.05 µM) was 0.961 and the relative viability ([2]; first compound 0.1581 µM) was 1.29. For the same cell line, the relative viability ([2]; first compound 0.5 µM) was 0.798, the relative viability (Vandetanib + Trametinib; first compound 0.02 µM) was 0.619 and the relative viability (Vandetanib + Trametinib; first compound 0.06325 µM) was 0.517. It also gave a relative viability (Vandetanib + Trametinib; first compound 0.2 µM) of 0.695, a relative viability (Vandetanib + Trametinib; first compound 0.6325 µM) of 0.71 and a relative viability (Vandetanib + Trametinib; first compound 2 µM) of 0.641. For the same cell line, the relative viability (NVP-TAE684 + Vorinostat; first compound 0.2 µM) was 0.413, the relative viability (NVP-TAE684 + Vorinostat; first compound 0.6325 µM) was 0.397 and the relative viability (NVP-TAE684 + Vorinostat; first compound 2 µM) was 0.101.
